This series deals with NRK-52E cells. As to the kind of experiment: High content imaging of lysosomes and nuclei (LysoView 633 / SYTO 16). It is filed as cell-based, rat. As to the method:
For high content imaging, NRK-52E and RPTEC/TERT1 cells were cultivated in µ-clear half well area microtiter plates (Greiner) according to the protocol described for the cytotoxicity assay with slight modification. Briefly, NRK-52E cells were seeded at 5,000 cells in 100 µL growth medium per well and were incubated under standard growth conditions for 48 h prior to treatment. RPTEC/TERT1 cells were seeded at 15,000 cells in 100 µL growth medium per well and incubated under standard growth conditions for 7–8 days, until cells reached confluence and started to differentiate. This was indicated by the formation of three-dimensional structures referred to as domes which were identified by regular microscopic inspection of the plates. Only differentiated cell cultures with detectable domes were assayed. Cells of both cell lines were treated with serially diluted Polymyxin B sulfate (concentration range 7.8 to 2,000 µM) for 1, 2, 4, 6, or up to 24 h. The assay was carried out on three biological replicates defined as three different non-consecutive passages of the cell culture. Each biological replicate at each treatment concentration was assayed in triplicate wells per plate.
Following treatment, cells were stained with two different combinations of fluorescent dyes: NRK-52E cells with 50 pg/μL LysoView™ 633 (Biotium) and 1 µM SYTO 16 (Thermo Scientific), respectively, for lysosomes and nuclei; RPTEC/TERT1 cells with 10 nM LysoTracker™ Red (Thermo Scientific) and 10 ng/μL Hoechst 33342 (Merck-Sigma Aldrich), respectively, for lysosomes and nuclei. For each cell line a staining solution was obtained by mixing the lysosomes and nuclei dyes in cell culture medium at the concentrations indicated above. […]
Images were acquired with a fully automated fluorescence confocal Opera™ QEHS system (PerkinElmer, United Kingdom) using a ×40 air UPlanApo objective (Olympus) with 0.85 numerical aperture. […]
The images were analyzed by custom-made image analysis scripts either with the imaging analysis software Acapella (version 2.8 PerkinElmer) or Columbus (version 2.4.0 PerkinElmer). […]

The text below walks through data of article PMC9061999, “Application of the Adverse Outcome Pathway Concept to In Vitro Nephrotoxicity Assessment: Kidney Injury due to Receptor-Mediated Endocytosis and Lysosomal Overload as a Case Study” (Frontiers in Toxicology, 2022).

As for Polymyxin B, the “Treatment time at which changes in nuclei area and nuclei intensity appeared” value (NRK-52E, 250 µM) is on record as 20 h. Also, the “Treatment time at which lysosomal effects with nuclear changes first appeared” value (NRK-52E, 500 µM) is 12 h. Further, the “Treatment time from which lysosomal effects were accompanied by nuclear changes” value (NRK-52E, 1,000 and 2000 µM) is listed as 8 h.
